The structures appear in SMILES notation.

The assay has as its target T1, Mtb topoisomerase I (Mycobacterium tuberculosis, UniProt P9WG49).
T1 construct: gene topA
Nature of the assay: biochemical.

T1 sequence (P9WG49 whole entry): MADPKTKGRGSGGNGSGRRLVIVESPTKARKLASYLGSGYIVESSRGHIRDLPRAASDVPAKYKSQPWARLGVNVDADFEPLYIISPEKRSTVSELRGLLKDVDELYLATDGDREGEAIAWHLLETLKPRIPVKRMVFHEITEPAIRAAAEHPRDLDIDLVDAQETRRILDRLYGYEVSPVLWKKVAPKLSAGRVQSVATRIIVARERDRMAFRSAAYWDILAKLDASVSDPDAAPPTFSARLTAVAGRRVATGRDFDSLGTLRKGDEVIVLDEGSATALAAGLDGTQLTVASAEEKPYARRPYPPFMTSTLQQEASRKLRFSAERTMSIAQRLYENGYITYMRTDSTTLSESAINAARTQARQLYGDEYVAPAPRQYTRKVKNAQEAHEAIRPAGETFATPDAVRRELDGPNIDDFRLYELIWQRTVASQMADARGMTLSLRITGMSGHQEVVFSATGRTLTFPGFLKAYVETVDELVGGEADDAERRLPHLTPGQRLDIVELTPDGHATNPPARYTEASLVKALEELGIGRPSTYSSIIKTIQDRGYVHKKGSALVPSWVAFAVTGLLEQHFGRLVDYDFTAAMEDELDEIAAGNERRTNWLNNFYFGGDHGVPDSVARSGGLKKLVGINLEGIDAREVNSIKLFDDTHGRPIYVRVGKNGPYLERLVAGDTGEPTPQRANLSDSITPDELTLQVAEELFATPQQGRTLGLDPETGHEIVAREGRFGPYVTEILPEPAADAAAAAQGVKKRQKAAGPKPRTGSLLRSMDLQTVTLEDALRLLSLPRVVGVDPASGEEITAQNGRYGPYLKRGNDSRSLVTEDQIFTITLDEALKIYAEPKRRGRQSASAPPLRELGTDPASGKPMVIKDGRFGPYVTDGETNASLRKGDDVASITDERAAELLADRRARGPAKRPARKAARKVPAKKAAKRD

Broadly, the IC50 is the midpoint of a concentration-inhibition curve. Lower therefore signals greater potency. Consider `COc1cc(NS(C)(=O)=O)ccc1Nc1c2ccccc2nc2ccccc12` [mAMSA], for which the concentration for half-maximal inhibition (IC50) came to 17.4 µM.
